From patent publication US20220362330A1, “Compositions and Methods for Increasing Epithelial Barrier Function” (The Board of Trustees of the Leland Stanford Junior …, priority 2019, published 2022)
Entries after “also recorded” stand apart in the source; their conditions may differ.

Test system: EphrinA3 (EFNA3)
Assay: EphrinA3 gene and protein expression in vaginal tissue (RT-PCR, immunohistochemistry)
Assay type: in vivo
Settings: DMPA-treated vs estrus-stage mice
Description: Vaginal tissue was harvested from mice in estrus, DMPA-treated mice, and mice treated with DMPA and Premarin vaginal cream were placed in RNAlater® for RNA isolation or embedded in formaldehyde for histology analysis. FIG. 5A is a bar graph showing gene expression for Ephrin A3 (Efna3) relative to pyruvate carboxylase, a housekeeping gene.
To corroborate microarray results, EphrinA3 gene and protein expression were compared in estrus-stage and DMPA-treated mice. To also evaluate effects of exogenous estrogen, other DMPA-treated mice were treated intravaginally with the estrogen cream Premarin. […] The vaginal tissue was assessed for DSG1 protein levels using immunofluorescent staining and confocal microscopy.
Human ectocervical and murine vaginal tissues were immediately immersed in 1 mL of RNAlater® (Qiagen), stored for 24 h at 4° C., and stored long-term at −80° C. RNA isolated using the RNeasy Lipid Tissue Kit (Qiagen) using manufacturer's instructions was re-suspended in nuclease-free water and quantified using a NanoDrop spectrophotometer (Thermo Scientific). […] To define relative gene expression, 100 ng of RNA was mixed with TaqMan® RNA-to-Ct™ 1-Step Kit and adequate primer (final volume of 10 μL/well) using manufacturer's instructions (Life Technologies). qRT-PCR was performed using a Quantstudio3 Thermal Cycler, and data analyzed via Quanstudio Software (Applied Biosystems). […]

Structure (SMILES): CC(=O)O[C@]1(C(C)=O)CC[C@H]2[C@@H]3C[C@H](C)C4=CC(=O)CC[C@]4(C)[C@H]3CC[C@@]21C [DMPA]
- expression of EphrinA3 in vaginal mucosal tissue: dramatically impair expression; also recorded: reduces EFNA3 expression
